Two compounds from ChEMBL document CHEMBL5726787, “Compounds, compositions and methods” (2018) can be followed below.

The target of the test is T1, Receptor-interacting serine/threonine-protein kinase 1 (Homo sapiens, UniProt Q13546).
T1 sequence (Q13546 whole entry): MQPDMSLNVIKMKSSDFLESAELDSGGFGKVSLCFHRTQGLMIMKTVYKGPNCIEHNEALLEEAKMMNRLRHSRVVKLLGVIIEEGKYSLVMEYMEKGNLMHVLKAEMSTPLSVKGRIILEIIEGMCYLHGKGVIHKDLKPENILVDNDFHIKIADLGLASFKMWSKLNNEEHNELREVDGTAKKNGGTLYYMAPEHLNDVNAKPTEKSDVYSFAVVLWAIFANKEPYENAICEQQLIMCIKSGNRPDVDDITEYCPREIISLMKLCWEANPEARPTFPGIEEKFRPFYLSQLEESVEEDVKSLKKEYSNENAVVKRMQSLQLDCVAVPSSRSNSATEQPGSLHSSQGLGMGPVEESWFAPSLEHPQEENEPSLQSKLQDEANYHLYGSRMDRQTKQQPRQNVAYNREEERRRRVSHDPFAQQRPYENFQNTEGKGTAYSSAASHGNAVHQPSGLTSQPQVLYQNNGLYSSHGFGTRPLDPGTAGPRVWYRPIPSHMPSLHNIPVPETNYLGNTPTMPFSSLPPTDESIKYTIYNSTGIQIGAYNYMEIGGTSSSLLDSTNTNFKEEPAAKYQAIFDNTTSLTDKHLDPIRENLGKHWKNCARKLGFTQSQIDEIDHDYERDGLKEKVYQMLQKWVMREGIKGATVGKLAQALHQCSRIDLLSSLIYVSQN
The test can be described thus: […]: Test compounds were diluted in DMSO and 0.1 μL of solution was dispensed to each well of a 384-well white solid microplate. The assay buffer was 50 mM HEPES pH 7.5, 50 mM NaCl, 30 mM MgCl2. The buffer was supplemented with 0.02% CHAPS, 0.01% of Pluronic F127, 0.1 mg/mL BSA and 1 mM DTT. MnCl2, 5 mM, was included in the assay buffer on the day of the experiment. […] 5 μL of enzyme and 5 μL of ATP were added to the plate at twice the final assay concentration and incubated at room temperature for 3 hours. Following this reaction, 10 μL of ADP-Glo reagent (Promega) was added to each well and incubated for 40 min at room temperature. This stops the kinase reaction and depletes any remaining ATP. 20 μL of ADP-Glo detection reagent was then added to each well and incubated at room temperature for at least 15 minutes. The detection reagent converts ADP to ATP and introduces luciferase and luciferin to detect ATP. The luminescence is then measured with the Envision (PerkinElmer) plate reader. Test compound inhibition was expressed as percent inhibition of internal assay controls. For concentration response curves, normalized data is fit and IC50 determined using XL-fit (IDBS) for Excel. The IC50 were averaged to determine a mean value, for a minimum of two independent experiments.

A word on the IC50: it is the concentration at which inhibition is half-maximal. Compound `CN1C(=O)C(NC(=O)c2nnc(Cc3ccccc3)[nH]2)C[C@@H](F)c2ccccc21` (some centres not stated) registered an IC50 of 0.1 to 1000 nM.
Compound `CN1C(=O)C(NC(=O)c2nnc(Cc3ccccc3)[nH]2)C[C@H](F)c2ccccc21` (some centres not stated) had a half-maximal inhibitory concentration (IC50) of 0.1 to 1000 nM.
